Article PMC6868039, “Maltose Processing and Not β-Amylase Activity Curtails Hydrolytic Starch Degradation in the CAM Orchid Phalaenopsis” (Frontiers in Plant Science, 2019)

Biological target: T1, PEPC (phosphoenolpyruvate carboxylase)
T1 construct: native enzyme in desalted (Sephadex G-25) crude leaf extract, not purified; phosphorylation state varies over the day
Assay: NADH oxidation at […] nm, coupled to endogenous MDH in desalted leaf extract
Assay type: biochemical, Phalaenopsis hybrid cultivar
Conditions: daytime leaves (mean of fluctuating values); 2.5 mM PEP, 10 mM NaHCO3, 5 mM MgCl2, pH 7.5, 25 °C; crude desalted extract

O=C(O)C[C@H](O)C(=O)O [malic acid]
Ki: 6 ± 3 mM
